Patent US6989390B2, “Amonafide salts” (priority 2002, dated 2006)

Columns and labels:
[1] = Minimum amount of water/ethanol (1.5/4 v/v) required to dissolve the crude salt at boil (recrystallization); assay type: physicochemical
Description: For comparative purposes, between and among organic salts prepared in this manner and for the purposes of subsequent Example 3, Table 3, crude reaction products were recrystalized from water/ethanol (1.5/4 v/v per gram of salt) using the minimum amount of solvent to effect dissolution at boil.
In the case of succinic acid, the organic acid was dispensed as a half-equivalent in order to generate mitonafide hemisuccinate. […] Crude product that was isolated from the hydrogenation reaction mixture was analyzed for purity by high pressure liquid chromatography (HPLC) according to the conditions described in Table 1 above. The crude product was recrystallized from water/ethanol (1.5/4 v/v) using the minimum amount of solvent required to dissolve the crude product at boil, which is shown in the last column of Table 3 for each salt. The recrystallized product was then analyzed for purity by HPLC.
The purities of the crude salts were assessed by HPLC according to the conditions described in Table 1 above. The crude salts were then recrystallized from the minimum amount of water/ethanol (1.5/4 v/v) using the minimum amount of solvent required to dissolve the crude product at boil, which is shown in the last column of Table 3 for each salt. The resulting purified salts were again assessed for purity.
The hydrochloride and methanesulfonic acid salts of amonafide were prepared according to U.S. Pat. No. 5,420,137. Exemplary procedures are as follows: 3 g of crude amonafide free base, obtained as described in the previous two paragraphs, above, were dissolved under reflux in 60 ml of virtually anhydrous ethanol. Subsequently 1 ml of 35% (1 equivalent, estimated) strength hydrochloric acid was added dropwise while shaking vigorously. After cooling, the resulting crystals were filtered off and washed with 10 ml of anhydrous ethanol. The methanesulfonic acid salt was obtained using the same procedure, but replacing hydrochloric acid with 0.8 ml of methanesulfonic acid. The purity was assessed by HPLC using the conditions described in Table 1. The isolated products were then recrystallized from water/ethanol (1.5/4 v/v) using the minimum amounts of solvent required to dissolve the crude product at boil, which are shown for each salt in Table 3. The resulting purified salts were again assessed for purity.
The hydrochloride salt of amonafide was obtained by the method of Zee-Chang et al., U.S. Pat. No. 4,614,820. Exemplary conditions are as follows: a mixture of the hydrochloride salt of N-(dimethylaminoethyl)-3-nitro-1,8-naphthalimide and 10% palladium-on-charcoal in water was hydrogenated at room temperature under 40 lbs/in^2 of hydrogen for one hour. […] To the mixture was added 3 ml of concentrated hydrochloric acid. It was then filtered and the filtrate was evaporated to dryness under reduced pressure. The residue was triturated with 30 ml of absolute ethanol and filtered. The resulting solid was then washed with ether and dried. The purity was assessed by HPLC using the conditions described in Table 1. The crude product was then recrystallized from water/ethanol (1.5/4 v/v) using the minimum amount of solvent (40 mL/g) required to dissolve the crude product at boil. The resulting purified salts were again assessed for purity.

[2] = tested on: H460 (Non-Small Cell Lung Cancer); assay: Cytotoxic activity in vitro, percent net growth (SRB/MTT); assay type: cell-based; conditions: H460, 48 hours
Protocol: (§1) These cell lines are used by the National Cancer Institute: Developmental Therapeutics Branch in their preliminary screening process for antineoplastic agents. Subsequently, Amonafide Malate was tested against a larger panel of breast, lung and colon cell lines
(§2) Cells were grown in RPMI 1640 medium containing 5% fetal bovine serum and 2 mM L-glutamine. Dependent upon cell doubling time, between 5,000 and 40,000 cells were inoculated into 96 well microtiter plates in a volume of 100 uL per well. The plates were incubated at 37° C., 5% CO2, 95% air, and 100% relative humidity for 24 hours prior to the addition of the experimental drug. After the, 24 hour incubation, two (2) plates of each cell line were fixed in situ with trichloroacetic acid (TCA) to establish the cell population at time of drug addition (Tz).
(§3) Prior to use, the experimental drugs were solubilized in dimethyl sulfoxide at 400-fold the desired final maximum test concentration and frozen. At time of drug addition, an aliquot of frozen concentrate was thawed and diluted to twice the desired final maximum test concentration with complete medium containing 50 ug/ml gentamicin. An additional four (4) 10-fold or ½ log serial dilutions was made for a total of five (5) drug concentrations plus a control. An aliquot of 100 ul of each drug dilution was added to the appropriate well that already contains 100 ul of medium containing the cells. The plates were then incubated for 48 hours at 37° C., 5% CO2; 95% air and 100% relative humidity.
(§4) The number of viable cells was estimated by either a SRB or MTT calorimetric assays.
(§5) For SRB assay, cells were fixed in situ by the gentle addition of 50 ul cold (w/v) TCA (final concentration, 10% TCA) and incubated for 60 minutes at 4° C. The supernatant was discarded, plates washed five (5) times with tap water and air dried. Then Sulforhodamine B (SRB) solution (100 μl) at a 0.4% (w.v.) in 1% acetic acid was added to each well, and the plates incubated for 10 minutes at room temperature. Unbound dye was removed by washing five (5) times with 1% acetic acid and the plates were air dried. The bound stain was solubilized with 10 mM trizma base and the absorbance was read on an automated plate reader at a wavelength of 515 nm.
(§6) The MTT assay measures the ability of viable cells to reduce a tetrazolium salt (MTT) to an insoluble form, a formazan salt. For MTT analysis 20 μl of MTT solution (5 mg/ml in PBS) was added to each well containing cells. The plate was incubated at 37° C. for 5 hours. Media was removed with needle and syringe. 200 μl of DMSO was added to each well and pipetted up and down to dissolve crystals. Plate was placed into a 37° C. incubator for 5 minutes to dissolve air bubbles. Absorbance was read on an automated plate reader at a wavelength of 550 nm.
(§7) Percent net growth inhibition, as shown in FIGS. 2-7, was calculated using the seven absorbance measurements: absorbance by cells at time zero (Tz), absorbance by cells grown in the absence of drug (C), and absorbance of cells grown at the five drug concentrations (Ti). The following expression was used: % Net Growth=[(Ti−Tz)/(C−Tz)]×100 if Ti was greater than or equal to Tz. % Net Growth=[(Ti−Tz)/Tz]×100 if Ti was less than Tz.
(§8) Using the plot of Percent Net Growth as a function of drug concentration, lethality concentration “50%” (LC50), total growth inhibition (TGI) and growth inhibition “50%” (GI50) were determined as follows.

MCF7 (Breast) = assay: as above; assay type: cell-based; conditions: MCF7, 48 hours
Protocol: as §1, §2, §3, §4, §5, §6, §7, §8

SF268 (Glioma) = assay: as above; assay type: cell-based; conditions: SF268, 48 hours
Protocol: as §1, §2, §3, §4, §5, §6, §7, §8

[3] = Daily body weight and general health monitoring during the hollow fiber study; assay type: in vivo; conditions: mice, monitored daily for 6 days, i.p. dosing
Protocol: Individual mouse body weights were recorded daily and animals were monitored daily for general health for 6 days.

[4] = Percent Net Growth -50%, read-out: LC50 (the source's name)

For `CN(C)CCN1C(=O)c2cccc3cc(N)cc(c23)C1=O.O=C(O)C[C@H](O)C(=O)O` [Amonafide Malate], the “Solvent” value ([1]; minimum water/ethanol (1.5/4 v/v) to dissolve crude product at boil, salt made by the method in column 2) was 7.5 mL/g, the “recrystallization volume for purification, malate compared with HCl” value ([1]; water/ethanol 1.5/4 v/v) was 5 times smaller and the TGI ([2]; Percent Net Growth 0%) was 96 µM. For the same compound, the GI50 ([2]; Percent Net Growth 50%) was 4.11 µM, the CC50 [2, 4] was 170 µM and the TGI (MCF7 (Breast); Percent Net Growth 0%) was 110 µM. The GI50 (MCF7 (Breast); Percent Net Growth 50%) was 5.16 µM, the CC50 (MCF7 (Breast); [4]) was 662 µM and the TGI (SF268 (Glioma); Percent Net Growth 0%) was 154 µM. The GI50 (SF268 (Glioma); Percent Net Growth 50%) was 7.7 µM and the “premature sacrifice for body weight loss of greater than 20% or other signs of toxicity” value [3] was “not necessary to sacrifice any animals”.
